Key:
Bindweed [1] = assay: Test 11 citrus pots, postemergence to the weeds; type: in vivo, Convolvulus spp.; details: Postemergence 32 g/ha, 0.25% X-77 surfactant, scale 0-100
Experimental: (§1) Budded citrus seedlings were planted in 30-liter plastic pots which were also seeded with sandbur, guineagrass, narrowleaf panicum, common ragweed, yellow nutsedge, purple nutsedge and bindweed. Compound I was applied preemergence and postemergence to the weeds. Treatments were sprayed to simulate the trunk-to-trunk herbicide application method used in some citrus groves. The compound was also applied postemergence to weeds grown in windowsill flats. The flats were filled with planting medium and seeded with morningglory (Ipomoea spp.). purple nutsedge (Cyperus rotundus), pigweed (Amaranthus spp.), bindweed (Convolvulus spp.), narrowleaf panicum (Panicum maximum), common ragweed (Ambrosia artemisiifolia), sandbur (Cenchrus echinatus), itchgrass (Rottboellia exaltata), johnsongrass (Sorghum halepense), guineagrass (Panicum maximum), smooth crabgrass (Digitaria ischaemum), broadleaf signalgrass (Brachiaria platyphylla), bermudagrass (Cynodon dactylon), goosegrass (Eleusine indica), large crabgrass (Digitaria sanguinalis) and yellow nutsedge (Cyperus esculentus).
(§2) The compound was formulated and sprayed with 0.25% X-77 surfactant in water. Plants were visually rated 21 and 29 days after treatment and compared with appropriate controls. Injury ratings were based on the scale of 0 to 100, where 0 indicates no effect, 20 indicates minimum effect and 100 indicates complete control. […]

Sour Lemon = assay: Test 12 over-the-top application, postemergence; type: in vivo; details: 26 days after treatment, scale 0-100
From the text: The object of this test was to evaluate the safety of sour lemon to the over-the-top application of Compound I and control of lantana (Lantana camara) and trumpetcreeper (Campsis radicans). Plants were sprayed postemergence with Compound I formulated in a non-phytotoxic solvent. Treated plants were visually rated 26 days after treatment and compared with appropriate controls. Injury ratings were based on the scale of 0 to 100, where 0 indicates no effect, 20 indicates minimal effect and 100 indicates complete control.

Bindweed [2] = assay: Test 11 citrus pots, preemergence to the weeds; type: in vivo, Convolvulus spp.; details: Preemergence 32 g/ha; 0.25% X-77 surfactant; scale 0-100
Experimental: as §1, §2

Kentucky bluegrass = assay: Test 7 postemergence; type: in vivo, Poa pratensis; details: scale 0-100
Experimental: (§3) Individual 11.4-cm plastic pots filled with planting medium were seeded with rape, wild radish (Raphanus raphanistruna). tansy mustard (Descurainia pinnata), ball mustard (Neslia paniculata), black mustard (Brassica nigra), yellow mustard, brown mustard, lentils, safflower, flax, sunflower, peanut, vetch, alfalfa, field bean, pea, violet (Viola spp), Kochia (Kochia spp), Russian thistle (Salsola spp), Matricaria spp, groundsel (Senecio spp), shepherdspurse (Capsella bursa-pastoris), nightshade (Solanum spp), sowthistle (Sonchus spp), sugar beet, wheat, "Bonanza" barley and "Morex" barley, Kentucky bluegrass (Poa pratensis), red clover (Trifolium pratense), dandelion (Taraxacum spp) and buckhorn plantain (Plantago lanceolata).
(§4) Plants were treated postemergence with the compound formulated with a non-phytotoxic carrier. Plants were visually rated 18 days after treatment (DAT). Response ratings were based on the scale of 0 to 100 where 0 = no effect, 20 = minimal injury and 100 = complete control.

Guinea Grass = assay: Test 9 postemergence; type: in vivo, Panicum maximum; details: 16 g/ha, scale 0-100
Experimental: Plastic windowsill pots containing planting medium were seeded with bahiagrass, bindweed (Convolvulus spp), guinea grass (Panicum maximum), large crabgrass (Digitaria sanguinalis) and pigweed (Amaranthus spp). Individual 15-cm plastic pots contained sandbur (Cenchrus echinatus), Mikania cordata, Boston fern (Nephrolepis exalata), quackgrass (Agropyron repens), elephantgrass (Pennisetum purpureum) and sowthistle (Sonchus spp) plants.
Plants were treated postemergence with Compound I formulated in a non-phytotoxic solvent. Plants were visually rated 22 days after treatment (DAT). Injury and weed control ratings were based on the scale of 0 to 100 where 0 = no effect, 20 = minimal control and 100 = complete control.

Flax = assay: Test 10 postemergence safety to crops and weed control; type: in vivo; details: 16 g/ha, scale 0-100
Experimental: (§5) The object of these tests was to evaluate the compound of this invention for postemergence safety to crops and weed control. Seedling and budded Macedine grapes were grown in 11.4-cm pots. Flax, green foxtail (Setaria viridis), "Morex" barley, wild oats (Avena fatua), "Era" wheat, annual ryegrass (Lolium multiflorum), wild radish (Raphanus raphanistrum), rape, sunflower, chickweed (Stellaria media) and wild buckwheat (Polygonum convolvulus) were seeded in windowsill pots.
(§6) The plants were sprayed postemergence with Compound I in a non-phytotoxic solvent. Plants were visually rated 15 and 27 days after treatment (DAT). Injury and weed control ratings were based on the scale of 0 to 100 where 0 = no effect, 20 minimal control and 100 = complete control.

Sunflower = assay: as above; type: in vivo; details: 16 g/ha, scale 0-100
Experimental: as §5, §6

Morex barley = assay: as above; type: in vivo; details: 16 g/ha, scale 0-100
Experimental: as §5, §6

Rape = assay: as above; type: in vivo; details: 16 g/ha, scale 0-100
Experimental: as §5, §6

Era wheat = assay: as above; type: in vivo; details: 16 g/ha, scale 0-100
Experimental: as §5, §6

Sugarcane = assay: Test 9 postemergence; type: in vivo; details: scale 0-100
Johnsongrass = assay: Test 11 windowsill flats, postemergence; type: in vivo, Sorghum halepense; details: Postemergence 32 g/ha, 0.25% X-77 surfactant, scale 0-100
Experimental: as §1, §2

Nightshade = assay: Test 7 postemergence; type: in vivo, Solanum spp; details: scale 0-100
Experimental: as §3, §4

Viola = assay: Test 7 postemergence; type: in vivo, Viola spp; details: scale 0-100
Experimental: as §3, §4

Ball mustard = assay: Test 7 postemergence; type: in vivo, Neslia paniculata; details: scale 0-100
Experimental: as §3, §4

Large Crabgrass = assay: Test 11 windowsill flats, postemergence; type: in vivo, Digitaria sanguinalis; details: Postemergence 32 g/ha, 0.25% X-77 surfactant, scale 0-100
Experimental: as §1, §2

Narrowleaf panicum = assay: Test 3 postemergence weed control; type: in vivo, P. maximum; details: 32 g/ha, scale 0-100
Experimental: Seeds of crabgrass (Digitaria spp), guinea grass (Panicum maximum) and narrowleaf panicum (P. maximum) were planted in 15-cm plastic pots. The weeds were treated postemergence with compound I, formulated in a non-phytotoxic solvent, when the plants had 3 or more leaves and had tillered. The degree of weed control was visually rated 17 days after compound application (DAT). Control ratings were based on a scale of 0 to 100 where 0 = no effect, 20 = minimal control and 100 = complete control.

SMILES: COC(=O)c1cccnc1S(=O)(=O)NC(=O)Nc1nc(OC)cc(OC)n1 [Compound I, 2-[[(4,6-dimethoxypyrimidin-2-yl)aminocarbonyl]aminosulfonyl]-3-pyridinecarboxylic acid, methyl ester]
- Injury ratings (Bindweed [1]): 100
- Injury ratings (Sour Lemon; 8 g/ha): 20
- Injury ratings (Sour Lemon; 16 g/ha): 50
- Injury ratings (Sour Lemon; 32 g/ha): 70
- Injury ratings (Bindweed [2]): 90
- Plant Injury Rating 18 DAT (Kentucky bluegrass; 16 g/ha): 100
- Plant Injury Rating 18 DAT (Kentucky bluegrass; 32 g/ha): 100
- Plant Injury Rating 22 DAT (Guinea Grass): 60
- Plant Injury Rating 15 DAT (Flax): 100
- Plant Injury Rating 15 DAT (Sunflower): 100
- Plant Injury Rating 15 DAT (Morex barley): 100
- Plant Injury Rating 15 DAT (Rape): 100
- Plant Injury Rating 15 DAT (Era wheat): 100
- Plant Injury Rating 22 DAT (Sugarcane; 8 g/ha): 10
- Plant Injury Rating 22 DAT (Sugarcane; 16 g/ha): 20
- Plant Injury Rating 22 DAT (Sugarcane; 32 g/ha): 30
- Injury ratings (Johnsongrass): 100
- Plant Injury Rating 18 DAT (Nightshade; 16 g/ha): 50
- Plant Injury Rating 18 DAT (Nightshade; 32 g/ha): 60
- Plant Injury Rating 18 DAT (Viola; 16 g/ha): 100
- Plant Injury Rating 18 DAT (Viola; 32 g/ha): 100
- Plant Injury Rating 18 DAT (Ball mustard; 16 g/ha): 100
- Plant Injury Rating 18 DAT (Ball mustard; 32 g/ha): 100
- Injury ratings (Large Crabgrass): 80
- Control Rating 17 DAT (Narrowleaf panicum): 90
